Calls of active or inactive are those of the source.
Experiments:
[1] = inhibitors of intracellular T. cruzi replication, confirmation, NIH3T3 host cells, beta-gal luminescence (AID 2044); assay type: functional, cell-based;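 note: intracellular parasites grown in NIH/3T3 mouse fibroblasts as host cells; luminescent beta-galactosidase reporter signal from transgenic T. cruzi replicating inside host cells; inhibitors lower the luminescence signal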
[2] = target: T1, Replicative DNA helicase DnaB (Mycobacterium tuberculosis, UniProt P9WMR3); assay: DnaB intein splicing inhibitors, dose response, biochemical, cell-free fluorescence (AID 449749); assay type: functional
T1 sequence (P9WMR3 whole entry): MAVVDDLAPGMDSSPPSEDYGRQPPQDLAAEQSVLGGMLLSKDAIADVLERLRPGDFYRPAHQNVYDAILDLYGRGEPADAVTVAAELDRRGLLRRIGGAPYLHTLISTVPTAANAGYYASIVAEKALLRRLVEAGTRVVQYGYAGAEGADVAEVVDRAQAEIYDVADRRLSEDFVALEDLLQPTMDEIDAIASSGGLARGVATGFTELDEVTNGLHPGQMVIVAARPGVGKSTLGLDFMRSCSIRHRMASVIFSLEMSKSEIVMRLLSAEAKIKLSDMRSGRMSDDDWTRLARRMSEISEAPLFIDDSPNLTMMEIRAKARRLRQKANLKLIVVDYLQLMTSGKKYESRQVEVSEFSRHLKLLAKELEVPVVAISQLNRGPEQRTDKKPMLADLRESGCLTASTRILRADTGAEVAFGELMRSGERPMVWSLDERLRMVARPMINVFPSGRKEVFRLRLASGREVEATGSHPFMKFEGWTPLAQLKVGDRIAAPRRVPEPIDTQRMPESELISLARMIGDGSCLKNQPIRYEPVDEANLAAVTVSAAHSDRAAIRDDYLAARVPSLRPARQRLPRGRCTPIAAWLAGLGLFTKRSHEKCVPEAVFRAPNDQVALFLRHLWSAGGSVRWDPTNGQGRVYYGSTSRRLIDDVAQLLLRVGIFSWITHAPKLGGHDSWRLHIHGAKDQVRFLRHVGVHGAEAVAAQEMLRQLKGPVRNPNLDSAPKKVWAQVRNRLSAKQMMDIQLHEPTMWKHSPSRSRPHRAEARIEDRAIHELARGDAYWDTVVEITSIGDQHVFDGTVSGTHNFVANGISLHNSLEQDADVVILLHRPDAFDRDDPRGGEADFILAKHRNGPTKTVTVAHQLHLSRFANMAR

[3] = cytotoxicity toward NIH3T3 fibroblasts, dose response, counter-screen, cell-based, ATP luminescence, mouse fibroblasts (AID 2010); assay type: functional;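 note: cells exposed to compound for about 90 hours before reading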
Protein RecA = target: T2, Protein RecA (Mycobacterium tuberculosis, UniProt P9WHJ3); assay: Fluorescence Cell-Free Homogeneous Dose Retest to Identify Inhibitors of RecA-Intein Splicing Activity. [Related pubchem assays (depositor defined):AID2097, AID2223, AID489010, AID492950]; assay type: functional
T2 sequence (P9WHJ3 whole entry): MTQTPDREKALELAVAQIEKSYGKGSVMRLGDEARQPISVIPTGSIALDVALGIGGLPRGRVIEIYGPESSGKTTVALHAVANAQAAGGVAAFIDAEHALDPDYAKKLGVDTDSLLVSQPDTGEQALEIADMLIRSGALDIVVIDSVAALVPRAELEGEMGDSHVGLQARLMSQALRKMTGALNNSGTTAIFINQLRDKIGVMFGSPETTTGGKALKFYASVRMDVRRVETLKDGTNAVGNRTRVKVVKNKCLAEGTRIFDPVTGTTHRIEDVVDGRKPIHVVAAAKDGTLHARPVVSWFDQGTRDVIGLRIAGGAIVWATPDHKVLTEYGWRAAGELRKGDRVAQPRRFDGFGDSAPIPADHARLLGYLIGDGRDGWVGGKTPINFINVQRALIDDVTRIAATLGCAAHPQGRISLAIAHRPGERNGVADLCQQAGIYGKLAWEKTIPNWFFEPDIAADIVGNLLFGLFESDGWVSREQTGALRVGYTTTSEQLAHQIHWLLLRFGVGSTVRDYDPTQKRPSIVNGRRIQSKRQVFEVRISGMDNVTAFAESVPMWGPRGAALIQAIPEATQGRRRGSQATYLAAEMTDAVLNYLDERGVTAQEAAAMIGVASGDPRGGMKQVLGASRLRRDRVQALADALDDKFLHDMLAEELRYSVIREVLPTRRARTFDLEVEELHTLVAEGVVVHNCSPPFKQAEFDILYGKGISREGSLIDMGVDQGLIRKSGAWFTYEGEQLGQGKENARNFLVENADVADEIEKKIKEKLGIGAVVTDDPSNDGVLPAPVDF

cells [4] = assay: cells
[5] = target: Sphingosine 1-phosphate receptor 2 (Homo sapiens, UniProt O95136); assay: Dose Response Cell Based Assay for Agonists of the S1P2 Receptor of Purchased Analogues. [Related pubchem assays: 729, 843, 854, 736 ]; assay type: functional
Bcl-2-like protein 10 = Bcl-2-like protein 10 (Homo sapiens, UniProt Q9HD36); assay: Biochemical TR3 FP assay of Bcl-B inhibitor potency, EC50 (AID 1243); assay type: functional
[6] = target: Eukaryotic translation initiation factor 4E (Mus musculus, UniProt P63073); assay: eIF4E–eIF4G protein interaction inhibitors, dose response, biochemical, TR-FRET (AID 855); assay type: functional;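 note: potency for disrupting eIF4E binding to eIF4GI seen as loss of FRET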
Bcl-2-like protein 1 = Bcl-2-like protein 1 (Homo sapiens, UniProt Q07817); assay: BCL-XL inhibitors, dose response, selectivity assay for MCL1 inhibitor project, biochemical, fluorescence polarization, 1536-well (AID 2218)
[7] = target: T3, Dual specificity protein phosphatase 6 (Rattus norvegicus, UniProt Q64346)
T3 sequence (Q64346 whole entry): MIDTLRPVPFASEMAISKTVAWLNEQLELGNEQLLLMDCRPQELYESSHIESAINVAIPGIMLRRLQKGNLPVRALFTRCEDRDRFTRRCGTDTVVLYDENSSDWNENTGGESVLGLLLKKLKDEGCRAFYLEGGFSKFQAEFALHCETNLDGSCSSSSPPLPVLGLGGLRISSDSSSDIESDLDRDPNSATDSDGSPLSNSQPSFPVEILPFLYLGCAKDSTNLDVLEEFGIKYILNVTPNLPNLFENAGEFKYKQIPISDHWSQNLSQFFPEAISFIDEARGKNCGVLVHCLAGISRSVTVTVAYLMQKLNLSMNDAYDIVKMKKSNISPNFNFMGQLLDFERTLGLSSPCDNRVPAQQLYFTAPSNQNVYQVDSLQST

[8] = target: T4, Tyrosine-protein phosphatase non-receptor type 7 (Homo sapiens, UniProt P35236); assay type: functional
T4 sequence (P35236 whole entry): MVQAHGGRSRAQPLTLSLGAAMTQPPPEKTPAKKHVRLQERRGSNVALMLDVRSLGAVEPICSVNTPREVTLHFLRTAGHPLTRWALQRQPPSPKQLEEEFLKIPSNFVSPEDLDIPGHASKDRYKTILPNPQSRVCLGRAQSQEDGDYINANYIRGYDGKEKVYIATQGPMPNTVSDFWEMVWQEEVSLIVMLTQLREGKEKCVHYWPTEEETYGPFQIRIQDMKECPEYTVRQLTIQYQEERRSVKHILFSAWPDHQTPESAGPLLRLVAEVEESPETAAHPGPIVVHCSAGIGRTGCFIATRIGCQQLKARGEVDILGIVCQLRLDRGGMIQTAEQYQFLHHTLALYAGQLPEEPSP

[9] = target: T3, Dual specificity protein phosphatase 6; assay: MKP-3 phosphatase inhibitors, primary screen, biochemical, rat enzyme, in vitro (AID 425)
[10] = target: Glyceraldehyde-3-phosphate dehydrogenase (Homo sapiens, UniProt P04406)
Genome polyprotein = Genome polyprotein (Hepatitis C virus, UniProt Q2Q167); assay: HCV core protein dimerization inhibitors, dose response, biochemical, TR-FRET (AID 2159); set-up: species or system Hepacivirus hominis;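 note: blocks dimerization of HCV core protein measured by TR-FRET between tagged core106 pairs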
[11] = target: Induced myeloid leukemia cell differentiation protein Mcl-1 (Homo sapiens, UniProt Q07820); assay: MCL1-BIM BH3 interaction inhibitors, dose response, biochemical, fluorescence polarization, BIM-BH3 peptide, 1536-well (AID 2217)
[12] = target: T3, Dual specificity protein phosphatase 6; assay type: functional
[13] = target: T5, Neuropeptide Y receptor type 2 (Homo sapiens, UniProt P49146); assay: NPY-Y2 antagonist potency, selectivity check, dose response, counter-screen for NPY-Y1 antagonist project, cell-based (AID 1278); assay type: functional
T5 sequence (P49146 whole entry): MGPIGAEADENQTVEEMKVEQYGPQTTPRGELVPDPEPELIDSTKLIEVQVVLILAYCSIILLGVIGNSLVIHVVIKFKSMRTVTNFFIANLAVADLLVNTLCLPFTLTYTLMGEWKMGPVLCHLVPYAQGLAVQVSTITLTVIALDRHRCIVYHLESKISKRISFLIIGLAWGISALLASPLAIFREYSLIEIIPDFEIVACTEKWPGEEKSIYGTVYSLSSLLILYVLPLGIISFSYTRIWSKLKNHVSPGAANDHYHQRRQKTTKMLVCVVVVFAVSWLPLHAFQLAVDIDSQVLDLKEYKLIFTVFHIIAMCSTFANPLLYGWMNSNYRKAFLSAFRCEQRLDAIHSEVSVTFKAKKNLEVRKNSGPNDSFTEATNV

[14] = target: T6, Neuropeptide Y receptor type 1 (Homo sapiens, UniProt P25929); assay: NPY-Y1 receptor antagonist potency, dose response, cell-based (AID 1277); assay type: functional
T6 sequence (P25929 whole entry): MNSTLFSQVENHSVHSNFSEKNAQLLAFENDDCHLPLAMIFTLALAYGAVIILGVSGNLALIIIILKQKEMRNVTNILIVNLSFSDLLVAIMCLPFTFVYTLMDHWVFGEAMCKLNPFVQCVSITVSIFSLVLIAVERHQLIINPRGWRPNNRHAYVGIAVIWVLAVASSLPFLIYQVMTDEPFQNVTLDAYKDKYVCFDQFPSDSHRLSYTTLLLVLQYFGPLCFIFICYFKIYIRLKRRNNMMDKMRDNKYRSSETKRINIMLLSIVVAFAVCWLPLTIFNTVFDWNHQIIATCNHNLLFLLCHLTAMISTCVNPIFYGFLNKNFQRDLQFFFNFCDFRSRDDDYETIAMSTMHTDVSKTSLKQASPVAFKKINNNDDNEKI

[15] = target: Mothers against decapentaplegic homolog 3 (Homo sapiens, UniProt P84022); assay: SMAD3 transcription factor inhibitors, dose response (AID 715); assay type: functional
Ion channel NompC = Ion channel NompC (Danio rerio, UniProt Q7T1G6); assay: Fluorescence counterscreen assay for TRPML3 agonists: dose response cell-based high-throughput screening assay to identify agonists of the transient receptor potential channel N1 (TRPN1). [Related pubchem assays: 1526, 1424, 1448 ]; assay type: functional
Mucolipin-3 = target: T7, Mucolipin-3 (Homo sapiens, UniProt Q8TDD5); assay: Dose response cell-based high-throughput screening assay for agonists of the transient receptor potential channel ML3 (TRPML3). [Related pubchem assays: 1526, 1424, 1448 ]; assay type: functional
T7 sequence (Q8TDD5 whole entry): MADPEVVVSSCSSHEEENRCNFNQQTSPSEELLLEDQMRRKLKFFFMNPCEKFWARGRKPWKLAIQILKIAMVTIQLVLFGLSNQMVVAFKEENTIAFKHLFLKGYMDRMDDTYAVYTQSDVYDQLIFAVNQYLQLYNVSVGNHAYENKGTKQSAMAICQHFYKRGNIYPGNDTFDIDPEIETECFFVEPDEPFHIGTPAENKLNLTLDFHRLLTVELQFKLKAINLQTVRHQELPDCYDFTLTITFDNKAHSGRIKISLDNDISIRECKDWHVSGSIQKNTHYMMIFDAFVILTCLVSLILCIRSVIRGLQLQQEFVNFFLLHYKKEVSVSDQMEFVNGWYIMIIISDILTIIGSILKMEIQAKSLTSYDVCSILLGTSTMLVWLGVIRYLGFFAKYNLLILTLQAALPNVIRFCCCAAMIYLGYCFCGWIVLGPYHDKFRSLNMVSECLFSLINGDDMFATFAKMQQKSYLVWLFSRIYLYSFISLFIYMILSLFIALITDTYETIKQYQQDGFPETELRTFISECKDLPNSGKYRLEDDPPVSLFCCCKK

cells [16] = assay: cells; remark: listed apart in the source
[17] = HEp-2 cell cytotoxicity, dose response, cytotoxicity control for RSV inhibitor project, HTS (AID 2410); assay type: functional; details: human respiratory syncytial virus
Bcl-2-related protein A1 [18] = target: T8, Bcl-2-related protein A1 (Mus musculus, UniProt Q07440); assay: Bfl-1 inhibitors blocking BH3 peptide binding, confirmation, biochemical, TR-FRET, mouse Bfl-1 (AID 621);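 note: TR-FRET binding of GST-Bfl-1 to FITC-labelled Bid peptide via terbium antibody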
T8 sequence (Q07440 whole entry): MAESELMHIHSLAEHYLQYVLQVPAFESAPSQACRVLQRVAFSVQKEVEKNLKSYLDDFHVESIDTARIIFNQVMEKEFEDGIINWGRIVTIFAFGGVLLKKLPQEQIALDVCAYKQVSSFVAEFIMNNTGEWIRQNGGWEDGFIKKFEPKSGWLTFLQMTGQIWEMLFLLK

Bcl-2-related protein A1 [19] = target: T8, Bcl-2-related protein A1; assay: Bfl-1 binding inhibitors, SAR follow-up, biochemical, fluorescence polarization (AID 1070)

Glyceraldehyde-3-phosphate dehydrogenase, sequence (P04406 whole entry): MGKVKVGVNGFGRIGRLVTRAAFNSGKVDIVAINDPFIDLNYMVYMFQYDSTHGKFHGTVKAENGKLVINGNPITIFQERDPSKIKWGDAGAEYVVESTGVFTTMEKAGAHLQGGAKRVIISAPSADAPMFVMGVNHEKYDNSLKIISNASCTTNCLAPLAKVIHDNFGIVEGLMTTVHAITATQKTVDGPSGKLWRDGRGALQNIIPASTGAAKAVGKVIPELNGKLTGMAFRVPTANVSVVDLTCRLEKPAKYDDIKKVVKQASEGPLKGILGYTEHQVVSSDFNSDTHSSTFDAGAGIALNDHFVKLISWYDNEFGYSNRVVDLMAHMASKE
Ion channel NompC, sequence (Q7T1G6 whole entry): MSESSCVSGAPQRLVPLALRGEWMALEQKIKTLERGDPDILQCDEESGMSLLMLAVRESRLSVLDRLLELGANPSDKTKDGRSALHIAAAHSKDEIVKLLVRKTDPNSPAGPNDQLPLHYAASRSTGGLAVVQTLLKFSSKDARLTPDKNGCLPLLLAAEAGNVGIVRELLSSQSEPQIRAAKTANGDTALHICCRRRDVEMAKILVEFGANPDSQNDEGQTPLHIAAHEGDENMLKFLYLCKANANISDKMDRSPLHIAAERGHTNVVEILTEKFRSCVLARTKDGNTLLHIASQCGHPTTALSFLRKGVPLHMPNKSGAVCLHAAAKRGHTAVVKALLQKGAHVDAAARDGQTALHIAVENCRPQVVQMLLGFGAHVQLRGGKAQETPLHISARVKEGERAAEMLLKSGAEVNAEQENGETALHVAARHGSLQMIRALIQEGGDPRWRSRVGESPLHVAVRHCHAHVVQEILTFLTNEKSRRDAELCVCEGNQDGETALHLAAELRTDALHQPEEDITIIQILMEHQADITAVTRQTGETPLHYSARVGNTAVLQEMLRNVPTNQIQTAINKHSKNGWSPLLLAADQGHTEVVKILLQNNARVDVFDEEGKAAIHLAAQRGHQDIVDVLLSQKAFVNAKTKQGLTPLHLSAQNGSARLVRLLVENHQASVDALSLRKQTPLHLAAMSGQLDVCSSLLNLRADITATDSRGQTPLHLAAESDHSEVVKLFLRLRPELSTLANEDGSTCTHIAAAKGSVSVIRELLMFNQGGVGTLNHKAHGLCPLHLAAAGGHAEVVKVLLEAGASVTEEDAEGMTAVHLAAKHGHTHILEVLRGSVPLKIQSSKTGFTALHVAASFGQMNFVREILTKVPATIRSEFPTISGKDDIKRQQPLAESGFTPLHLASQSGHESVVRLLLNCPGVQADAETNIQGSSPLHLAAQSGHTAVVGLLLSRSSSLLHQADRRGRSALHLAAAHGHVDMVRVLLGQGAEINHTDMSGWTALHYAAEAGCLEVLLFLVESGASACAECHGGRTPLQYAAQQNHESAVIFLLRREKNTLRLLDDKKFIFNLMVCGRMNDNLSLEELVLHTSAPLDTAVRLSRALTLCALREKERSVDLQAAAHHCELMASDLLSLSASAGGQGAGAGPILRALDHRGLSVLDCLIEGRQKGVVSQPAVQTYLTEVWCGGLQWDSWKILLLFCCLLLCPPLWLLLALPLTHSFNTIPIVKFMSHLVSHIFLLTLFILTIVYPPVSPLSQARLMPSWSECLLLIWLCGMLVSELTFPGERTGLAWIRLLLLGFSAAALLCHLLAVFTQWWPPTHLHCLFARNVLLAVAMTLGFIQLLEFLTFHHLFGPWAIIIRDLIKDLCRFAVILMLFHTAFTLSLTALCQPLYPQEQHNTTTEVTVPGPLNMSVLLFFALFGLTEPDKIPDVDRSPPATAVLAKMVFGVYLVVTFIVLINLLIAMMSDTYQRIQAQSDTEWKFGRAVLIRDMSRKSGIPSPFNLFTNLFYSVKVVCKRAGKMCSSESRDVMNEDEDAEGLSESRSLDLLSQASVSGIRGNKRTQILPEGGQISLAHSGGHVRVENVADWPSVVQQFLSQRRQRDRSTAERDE
Sphingosine 1-phosphate receptor 2, sequence (O95136 whole entry): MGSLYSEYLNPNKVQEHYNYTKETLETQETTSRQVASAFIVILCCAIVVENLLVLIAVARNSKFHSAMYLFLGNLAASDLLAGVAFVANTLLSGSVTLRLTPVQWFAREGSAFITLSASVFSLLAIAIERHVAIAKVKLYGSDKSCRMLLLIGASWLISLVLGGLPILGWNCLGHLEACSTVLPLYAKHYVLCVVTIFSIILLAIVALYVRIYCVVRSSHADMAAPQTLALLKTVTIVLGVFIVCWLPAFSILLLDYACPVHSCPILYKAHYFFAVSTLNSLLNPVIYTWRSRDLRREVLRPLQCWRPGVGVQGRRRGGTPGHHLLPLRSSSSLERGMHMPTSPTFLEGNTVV
Mothers against decapentaplegic homolog 3, sequence (P84022 whole entry): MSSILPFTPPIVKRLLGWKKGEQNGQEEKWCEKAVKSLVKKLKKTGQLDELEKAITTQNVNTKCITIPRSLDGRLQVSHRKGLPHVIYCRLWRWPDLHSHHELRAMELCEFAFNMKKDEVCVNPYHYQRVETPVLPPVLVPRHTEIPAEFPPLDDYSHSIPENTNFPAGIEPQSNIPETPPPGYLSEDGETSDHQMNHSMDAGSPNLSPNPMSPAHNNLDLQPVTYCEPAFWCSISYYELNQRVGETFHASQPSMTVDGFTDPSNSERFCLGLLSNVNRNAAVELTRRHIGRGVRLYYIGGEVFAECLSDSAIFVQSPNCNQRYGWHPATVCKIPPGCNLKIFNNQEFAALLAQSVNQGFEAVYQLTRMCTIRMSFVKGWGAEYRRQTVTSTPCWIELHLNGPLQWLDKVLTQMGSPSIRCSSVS
Bcl-2-like protein 1, sequence (Q07817 whole entry): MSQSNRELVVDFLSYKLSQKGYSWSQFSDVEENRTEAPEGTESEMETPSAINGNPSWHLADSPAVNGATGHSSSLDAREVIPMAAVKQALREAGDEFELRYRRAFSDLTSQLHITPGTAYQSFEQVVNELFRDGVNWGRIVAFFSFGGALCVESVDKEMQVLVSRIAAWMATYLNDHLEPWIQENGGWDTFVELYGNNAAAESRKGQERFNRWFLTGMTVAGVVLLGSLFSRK
Genome polyprotein, sequence (Q2Q167 whole entry): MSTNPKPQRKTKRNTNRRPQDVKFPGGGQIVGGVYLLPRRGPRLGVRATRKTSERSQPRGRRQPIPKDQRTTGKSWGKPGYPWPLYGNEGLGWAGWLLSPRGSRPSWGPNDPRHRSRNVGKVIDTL
Eukaryotic translation initiation factor 4E, sequence (P63073 whole entry): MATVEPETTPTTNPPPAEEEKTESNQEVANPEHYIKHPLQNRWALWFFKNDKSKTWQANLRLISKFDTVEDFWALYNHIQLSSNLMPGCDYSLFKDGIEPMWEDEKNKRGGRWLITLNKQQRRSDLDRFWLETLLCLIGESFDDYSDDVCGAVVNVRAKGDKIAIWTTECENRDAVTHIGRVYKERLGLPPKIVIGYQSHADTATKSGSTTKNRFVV
Induced myeloid leukemia cell differentiation protein Mcl-1, sequence (Q07820 whole entry): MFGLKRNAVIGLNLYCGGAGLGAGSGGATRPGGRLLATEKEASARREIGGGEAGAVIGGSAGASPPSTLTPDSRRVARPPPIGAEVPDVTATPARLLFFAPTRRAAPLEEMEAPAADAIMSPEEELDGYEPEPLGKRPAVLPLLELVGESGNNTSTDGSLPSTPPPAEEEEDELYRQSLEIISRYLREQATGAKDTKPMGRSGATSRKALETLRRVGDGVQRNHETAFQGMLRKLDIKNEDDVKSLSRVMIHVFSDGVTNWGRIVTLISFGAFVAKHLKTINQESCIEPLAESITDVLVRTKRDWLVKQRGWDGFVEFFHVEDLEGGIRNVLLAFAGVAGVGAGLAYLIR
Bcl-2-like protein 10, sequence (Q9HD36 whole entry): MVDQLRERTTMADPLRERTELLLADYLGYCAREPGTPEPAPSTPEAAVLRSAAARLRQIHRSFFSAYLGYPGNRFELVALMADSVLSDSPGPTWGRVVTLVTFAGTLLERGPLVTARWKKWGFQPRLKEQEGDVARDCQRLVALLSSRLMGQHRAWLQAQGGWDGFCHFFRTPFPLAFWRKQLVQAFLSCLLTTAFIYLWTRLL

SMILES: O=C(CNC(=O)c1ccccc1)N/N=C/c1ccc([N+](=O)[O-])o1
- EC50 [1]: < 0.1 µM (active)
- AC50 [2]: > 380 µM (inactive)
- EC50 [3]: > 60 µM (not active)
- EC50 (Protein RecA): > 380 µM (inactive)
- EC50 (cells [4]): 0.022 µM (active)

SMILES: Cc1cc(C(=O)CSc2nc[nH]n2)c(C)n1Cc1ccccc1
- EC50 [5]: > 30 µM (not active)

SMILES: CCSc1nc(NN)c2c3c(sc2n1)CN(C)CC3
- EC50 (Bcl-2-like protein 10): 7.43 µM (active)

SMILES: CCCCCC#CCC#CCC#CCC#CCCCC(=O)O
- IC50 [6]: 32.1 µM (inactive)
- IC50 (Bcl-2-like protein 1): > 109 µM (not active)
- IC50 [7]: 25.1 µM (active)
- IC50 [8]: 15.4 µM (active)
- IC50 [9]: 0.832 µM (active)
- IC50 [10]: > 100 µM (not active)
- IC50 (Genome polyprotein): 46.3 µM (not active)
- IC50 [11]: 0.441 µM (active)
- IC50 [12]: 30.4 µM (active)

SMILES: CCCCNC(=O)c1onc(CSc2ccc(Cl)cc2)c1C(=O)O
- IC50 [13]: 9.93 µM (active)
- IC50 [14]: 16.8 µM (not active)

SMILES: CC(c1ccccc1)C1CC(=O)N(C2CCCCC2)C1=O (stereo unspecified)
- IC50 [15]: 125 µM (inconclusive)
- EC50 (Ion channel NompC): > 29.9 µM (not active)
- EC50 (Mucolipin-3): 4.1 µM (active)

SMILES: Cc1cccc2nc(-c3cccc(NC(=O)Cc4ccccc4)c3)cn12
- IC50 (cells [16]): 29.7 µM (active)
- CC50 [17]: 42.8 µM (active)

SMILES: O=C1C(Cl)=C(N2CCN(C(c3ccccc3)c3ccc(Cl)cc3)CC2)C(=O)N1c1ccc(Cl)c(Cl)c1 (stereo unspecified)
- IC50 (Bcl-2-related protein A1 [18]): > 100 µM (not active)
- IC50 [10]: > 100 µM (not active)
- IC50 (Bcl-2-related protein A1 [19]): > 100 µM (not active)

— ChEMBL document CHEMBL1201862, “PubChem BioAssay data set” (2004)
